Like-named read-outs stand apart in the source and are kept apart here.
Columns and labels:
[1] = design: method as in PMID 26463278; conditions: male Wistar rats, sub-acute oral exposure; cited from earlier work
[2] = cited from earlier work
[3] = Atropisomeric analysis of PCB 95 (enantiomeric fraction, EF) in tissues by chiral GC-ECD; type: in vivo, mice; conditions: racemic PCB 95 1.0 mg/kg oral, 24 h, EF = AE1/(AE1 + AE2)
Protocol: Adult male and female wild-type (WT) C57BL/6 mice, KO, and KI mice (4 months old) were exposed to racemic PCB 95. Mice were randomly assigned to exposure groups and received a single oral dose of PCB 95 (1.0 mg/kg) in stripped corn oil (10 mL/kg; lot# A0395699; cat# 801-03-7; Fisher Scientific) via gavage (5–7 mice per group). Control animals received corn oil alone (1–3 mice per group) to assess the potential background contamination with PCB 95. Animals were euthanized 24 h after PCB 95 exposure. Blood was collected from the heart and placed in pre-weighed glass vials with 80 μL of ethylenediaminetetraacetic acid solution (EDTA, 7.5%, w/w). The amount of blood in each vial was determined by weight prior to sample extraction. Adipose, brain, and liver tissues were excised from each animal and individually wrapped in aluminum foil. Samples were stored at −80 °C in separate plastic bags and shipped on dry ice to the University of Iowa for analysis.
Atropisomeric analyses of PCB 95 were performed with all samples using an Agilent 7890A gas chromatograph with a ^63Ni-μECD detector and a Chiralsil-Dex CB (25 m length, 250 μm inner diameter, 0.25 μm film thickness; Agilent, Santa Clara, CA, USA) following a published method with modifications.[48] The following temperature program was used for the atropisomeric analysis: 50 °C, hold for 1 min, 10 °C/min to 150 °C, hold for 65 min, 15 °C/min to 200 °C, and hold for 15 min. The injector and detector temperature was 250 °C, and the helium flow was 3.0 mL/min. The EF values of PCB 95 were calculated as EF = AE1/(AE1 + AE2) where AE1 and AE2 are the peak area of the first (E1) and the second eluting (E2) atropisomers, respectively. E1- and E2-PCB 95 correspond to aR- and aS-PCB 95, respectively.[16],[25]
Method blanks, blank tissue samples, and an ongoing precision and recovery standard were extracted in parallel with each sample batch. The method detection limits (MDLs) were determined based on method blanks (Table S3). Limits of quantification (LOQ) in different matrices were established based on the corresponding tissue blanks (Table S3). Surrogate standards, PCB 117 and 4′-159, were added to all samples to assess the precision and reproducibility of the analytical methods (Table S4). In addition, an ongoing precision and surrogate standard was in parallel extracted from both method and tissue blanks with each sample batch (Table S5). The resolution of atropisomers of PCB 95 on the Chiralsil Dex CB column was 1.27, calculated with the formula Rs = [tE2 – tE1)/(0.5 × (WE1 + WE2)], where tE1 and tE2 are the retention times of peaks 1 and 2, and WE1 and WE2 indicate the width of the peak E1 and E2. The EF value of the racemic standard of PCB 95 was 0.498 ± 0.004 (n = 7).
Levels of PCB 95 and its metabolites, expressed as ng per gram wet weight (ng/g), and EF values are reported as mean ± standard deviation (Tables S6 and S7). The statistical analyses were performed with two-way ANOVA with the Bonferroni model in GraphPad Prism 9.4.1 (Tables S8 and S9). In addition, OH-PCB metabolite profiles were compared using the similarity coefficient, cos θ (Tables S10 and S11).[49] The cos θ ranges from 0 to 1, where a value of 0 indicates completely different profiles and a value of 1 indicates identical profiles. The original data underlying this study are openly available through the Iowa Research Online repository at https://doi.org/10.25820/data.006613.

[4] = cited from earlier work; remark: listed apart in the source
[5] = FKI, female CYP2A6-humanized mice
[6] = FKO, female Cyp2abfgs-null mice
[7] = MKI, male CYP2A6-humanized mice
[8] = collected in 2001 from Japanese women

Clc1ccc(Cl)c(-c2c(Cl)ccc(Cl)c2Cl)c1 [PCB 95, 2,2′,3,5′,6-pentachlorobiphenyl]
PCB 95 levels in adipose tissue [1]: 9300 ng/g
PCB 95 levels in blood [1]: 9 ng/g
PCB 95 levels in the cerebellum [1]: 51 ng/g
PCB 95 levels in the cortex [1]: 29 ng/g
PCB 95 levels in the liver [1]: 120 ng/g
Mean PCB 95 blood level ([2]; corresponding dams, exposure via diet through gestation and lactation): 16 ng/g
PCB 95 levels in the liver ([2]; corresponding offspring on postnatal day 21): 150 ng/g wet weight
PCB 95 levels in brain ([2]; dams euthanized on postnatal day 21): 47 ng/g
PCB 95 levels in adipose tissue ([2]; dams exposed during gestation and lactation, high dose 6.0 mg/kg bw/d): 11,600 ng/g
PCB 95 levels in adipose tissue ([2]; dams exposed during gestation and lactation, low dose 0.1 mg/kg bw/d): 170 ng/g
PCB 95 levels in blood ([2]; dams exposed orally during gestation and lactation, high dose 6.0 mg/kg bw/d): 52 ng/g
PCB 95 levels in blood ([2]; dams exposed orally during gestation and lactation, low dose 0.1 mg/kg bw/d): not detected
PCB 95 levels in the liver ([2]; dams exposed throughout gestation and lactation): 120 ng/g wet weight
PCB 95 levels in the liver ([2]; dams exposed to racemic PCB 95 during gestation and lactation, high dose 6.0 mg/kg bw/d): 700 ng/g
PCB 95 levels in the liver ([2]; dams exposed to racemic PCB 95 during gestation and lactation, low dose 0.1 mg/kg bw/d): 12 ng/g
PCB 95 levels in adipose tissue ([2]; female mice, sub-chronic oral exposure, 0.1 mg/kg bw/d): 1800 ng/g
PCB 95 levels in adipose tissue ([2]; female mice, sub-chronic oral exposure, 6.0 mg/kg bw/d): 47,000 ng/g
PCB 95 levels in blood ([2]; female mice, subchronic oral exposure, 0.1 mg/kg bw/d): 90 ng/g
PCB 95 levels in blood ([2]; female mice, subchronic oral exposure, 6.0 mg/kg bw/d): 1200 ng/g
PCB 95 levels in brain ([2]; mice exposed orally to different doses throughout pregnancy, below the detection limit): < 140 ng/g
PCB 95 levels in brain ([2]; offspring of pregnant mice exposed developmentally, postnatal day 7): 50 ng/g
PCB 95 levels in brain ([2]; offspring of pregnant mice exposed developmentally, postnatal day 21): 70 ng/g
PCB 95 levels in blood ([2]; postnatal day 21 pups exposed throughout gestation and lactation via the maternal diet): 36 ng/g
Enantiomeric fraction (EF) in adipose [3, 5]: 0.35 ± 0.02
Enantiomeric fraction (EF) in blood [3, 5]: 0.28 ± 0.07
Enantiomeric fraction (EF) in brain [3, 5]: 0.29 ± 0.01
Enantiomeric fraction (EF) in liver [3, 5]: 0.24 ± 0.03
Enantiomeric fraction (EF) in adipose [3, 6]: 0.41 ± 0.05
Enantiomeric fraction (EF) in blood [3, 6]: 0.37 ± 0.07
Enantiomeric fraction (EF) in brain [3, 6]: 0.39 ± 0.05
Enantiomeric fraction (EF) in liver [3, 6]: 0.32 ± 0.06
Enantiomeric fraction (EF) in adipose ([3]; FWT, female wildtype mice): 0.33 ± 0.02
Enantiomeric fraction (EF) in blood ([3]; FWT, female wildtype mice): 0.32 ± 0.07
Enantiomeric fraction (EF) in brain ([3]; FWT, female wildtype mice): 0.25 ± 0.03
Enantiomeric fraction (EF) in liver ([3]; FWT, female wildtype mice): 0.20 ± 0.03
Enantiomeric fraction (EF) in adipose [3, 7]: 0.36 ± 0.02
Enantiomeric fraction (EF) in blood [3, 7]: 0.31 ± 0.03
Enantiomeric fraction (EF) in brain [3, 7]: 0.32 ± 0.02
Enantiomeric fraction (EF) in liver [3, 7]: 0.27 ± 0.03
Enantiomeric fraction (EF) in adipose ([3]; MKO, male Cyp2abfgs-null mice): 0.38 ± 0.03
Enantiomeric fraction (EF) in blood ([3]; MKO, male Cyp2abfgs-null mice): 0.35 ± 0.04
Enantiomeric fraction (EF) in brain ([3]; MKO, male Cyp2abfgs-null mice): 0.34 ± 0.03
Enantiomeric fraction (EF) in liver ([3]; MKO, male Cyp2abfgs-null mice): 0.28 ± 0.04
Enantiomeric fraction (EF) in adipose ([3]; MWT, male wildtype mice): 0.37 ± 0.01
Enantiomeric fraction (EF) in blood ([3]; MWT, male wildtype mice): 0.28 ± 0.02
Enantiomeric fraction (EF) in brain ([3]; MWT, male wildtype mice): 0.31 ± 0.02
Enantiomeric fraction (EF) in liver ([3]; MWT, male wildtype mice): 0.26 ± 0.02
PCB 95 concentration in maternal serum ([4]; MARBLES cohort, detected in only one sample): 0.1 ng/g wet weight
PCB 95 in human adipose tissue ([4]; collected 2008 to 2009 during abdominal operations, Southeast China): below the limit of detection
PCB 95 in breast adipose tissue [4, 8]: below the detection limit
PCB 95 in serum [4, 8]: below the detection limit
Average PCB 95 levels in postmortem brain tissues ([4]; older donors aged 58 to 80, United States): 0.13 ng/g
PCB 95 in human liver samples ([4]; small human cohort from Belgium (N = 11)): below the limit of detection
PCB 95 in postmortem brain tissues ([4]; younger donors aged 0 days to 1 year): not detected

— PMC10445290, “Enantiomeric Fractions Reveal Differences in the Atropselective Disposition of 2,2′,3,5′,6-Pentachlorobiphenyl (PCB 95) in Wildtype, Cyp2abfgs-Null, and CYP2A6-Humanized Mice” (Chemical Research in Toxicology, 2023)
